Read-outs that look alike come from different tables or passages of the source.
Tests used:
Assay in all cases: microbe, parasite or virus in culture
Type in all cases: cell-based, Hepatitis C virus (HCV)
HCV replicon 2B = settings: Replicon Assay A
Procedure, shortened: (§1)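 HCV RNA levels were calculated from Ct values (minus intercept, divided by slope) of a Neo primer/probe standard curve, with cyclophilin quantified the same way. Cells were seeded at 2000/well and incubated with compound for 3 days in 5% serum and 0.5% DMSO.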

HCV replicon 1A = settings: Replicon Assay A
Procedure, shortened: as §1

HCV replicon 1AY93H = settings: Replicon Assay A
Procedure, shortened: as §1

HCV replicon 1AQ30D = settings: Replicon Assay B
HCV replicon 1B = settings: Replicon Assay B
[1] = read-out: 2B IC50, HCV replicon 2B
[2] = read-out: 1A Y93H IC50, HCV replicon 1A Y93H
[3] = read-out: 1A Q30D IC50, HCV replicon 1A Q30D
[4] = read-out: 1A Y93H IC50, replicon 1AY93H
[5] = read-out: 1A Q30D IC50, replicon 1AQ30D
[6] = Hepatitis C virus, read-out: 1A Q30D IC50 (nM), replicon 1AQ30D
[7] = Hepatitis C virus, read-out: 1A Q30D IC50, HCV replicon 1A Q30D
[8] = Hepatitis C virus, HCV replicon 1B

`COC(=O)NC(C(=O)N1[C@@H]2C[C@@H]2C[C@H]1c1ncc(-c2ccc3c(c2)cc2n3C(c3ccc(CC4CC4)s3)Oc3cc(-c4cnc([C@@H]5CCCN5C(=O)[C@@H](NC(=O)OC)C(C)C)[nH]4)cc(F)c3-2)[nH]1)C1CCOC(C)(C)C1` (single isomer, unassigned) [Compound 416] gave an IC50 (HCV replicon 2B; [1]) of 0.104 nM, an IC50 (HCV replicon 1A; HCV replicon 1A) of 0.0023 nM and an IC50 (HCV replicon 1AY93H; [2]) of 0.0862 nM. For the same molecule, the IC50 (HCV replicon 1AQ30D; [3]) was 1.24 nM and the IC50 (HCV replicon 1B; HCV replicon 1B) was 0.0031 nM.
With `COC(=O)N[C@H](C(=O)N1CCC[C@H]1c1ncc(-c2cc(F)c3c(c2)OC(c2cc(C4CC4)cs2)n2c-3cc3cc(-c4cnc([C@@H]5CCCN5C(=O)[C@@H](NC(=O)OC)C(C)C)[nH]4)ccc32)[nH]1)C(C)C` (single isomer, unassigned) [Compound 23] the IC50 (HCV replicon 2B; read-out: 2B IC50, replicon 2B) was 0.78 nM, the IC50 (HCV replicon 1A; Hepatitis C virus, replicon 1A) was 0.0032 nM and the IC50 (HCV replicon 1AY93H; [4]) was 0.24 nM. It also gave an IC50 (HCV replicon 1AQ30D; [5]) of 1.75 nM and an IC50 (HCV replicon 1B; Hepatitis C virus, replicon 1B) of 0.0039 nM.
In the case of `COC(=O)NC(C(=O)N1CCC[C@H]1c1ncc(-c2ccc3c(c2)cc2n3C(c3ccc(C4CC4)s3)Oc3cc(-c4cnc([C@@H]5CCCN5C(=O)[C@@H](NC(=O)OC)C(C)C)[nH]4)cc(F)c3-2)[nH]1)C1C[C@H](C)O[C@@H](C)C1` (single isomer, unassigned) [Compound 403], the IC50 (HCV replicon 2B; read-out: 2B IC50, replicon 2B) is reported as 0.007 nM, the IC50 (HCV replicon 1A; Hepatitis C virus, replicon 1A) is reported as 0.0025 nM and the IC50 (HCV replicon 1AY93H; [4]) is reported as 0.0067 nM. The IC50 (HCV replicon 1AQ30D; [6]) was 0.0703 nM and the IC50 (HCV replicon 1B; Hepatitis C virus, replicon 1B) was 0.0033 nM.
In the case of `COC(=O)NC(C(=O)N1CCC[C@H]1c1ncc(-c2ccc3c(c2)cc2n3C(c3ccc(C4CC4)s3)Oc3cc(-c4cnc([C@@H]5CCCN5C(=O)[C@@H](NC(=O)OC)C(C)C)[nH]4)cc(F)c3-2)[nH]1)C1CCCCO1` (single isomer, unassigned) [Compound 340], the IC50 (HCV replicon 2B; read-out: 2B IC50, replicon 2B) is reported as 0.0212 nM, the IC50 (HCV replicon 1A; Hepatitis C virus, replicon 1A) is reported as 0.0011 nM and the IC50 (HCV replicon 1AY93H; [4]) is reported as 0.0207 nM. It also gave an IC50 (HCV replicon 1AQ30D; [5]) of 0.2 nM and an IC50 (HCV replicon 1B; Hepatitis C virus, replicon 1B) of 0.0025 nM.
Work on `COC(=O)N[C@H](C(=O)N1CCC[C@H]1c1ncc(-c2cc(F)c3c(c2)OC(c2ccc(C4(C)CC4)s2)n2c-3cc3cc(-c4cnc([C@@H]5CCCN5C(=O)[C@@H](NC(=O)OC)C(C)C)[nH]4)ccc32)[nH]1)C(C)C` (single isomer, unassigned) [Compound 836] yielded an IC50 (HCV replicon 2B; HCV replicon 2B, read-out: 2B IC50) of 0.06 nM, an IC50 (HCV replicon 1A; HCV replicon 1A) of 0.0021 nM and an IC50 (HCV replicon 1AY93H; HCV replicon 1A Y93H, read-out: 1A Y93H IC50) of 0.016 nM. For the same molecule, the IC50 (HCV replicon 1AQ30D; HCV replicon 1A Q30D, read-out: 1A Q30D IC50) was 0.297 nM and the IC50 (HCV replicon 1B; HCV replicon 1B) was 0.0018 nM.
`COC(=O)NC(C(=O)N1CCC[C@H]1c1ncc(-c2ccc3c(c2)cc2n3C(c3ccc(C4CC4)s3)Oc3cc(-c4cnc([C@@H]5CCCN5C(=O)[C@@H](NC(=O)OC)C(C)C)[nH]4)cc(F)c3-2)[nH]1)C1(F)CCOCC1` (single isomer, unassigned) [Compound 364] showed an IC50 (HCV replicon 2B; Hepatitis C virus, read-out: 2B IC50 (nM), replicon 2B) of 0.0872 nM, an IC50 (HCV replicon 1A; Hepatitis C virus, replicon 1A) of 0.002 nM and an IC50 (HCV replicon 1AY93H; Hepatitis C virus, read-out: 1A Y93H IC50 (nM), replicon 1AY93H) of 0.0869 nM. It also gave an IC50 (HCV replicon 1AQ30D; [6]) of 0.498 nM and an IC50 (HCV replicon 1B; Hepatitis C virus, replicon 1B) of 0.0023 nM.
`COC(=O)NC(C(=O)N1CCC[C@H]1c1ncc(-c2ccc3c(c2)cc2n3C(c3ccc(C(F)F)s3)Oc3cc(-c4cnc([C@@H]5CCCN5C(=O)[C@@H](NC(=O)OC)C(C)C)[nH]4)cc(F)c3-2)[nH]1)C1C[C@@H](C)O[C@@H](C)C1` (single isomer, unassigned) [Compound 266] gave an IC50 (HCV replicon 2B; read-out: 2B IC50, replicon 2B) of 0.008 nM, an IC50 (HCV replicon 1A; Hepatitis C virus, replicon 1A) of 0.0011 nM and an IC50 (HCV replicon 1AY93H; [4]) of 0.003 nM. The IC50 (HCV replicon 1AQ30D; [6]) was 0.051 nM and the IC50 (HCV replicon 1B; Hepatitis C virus, replicon 1B) was 0.0015 nM.
Work on `COC(=O)N[C@H](C(=O)N1CCC[C@H]1c1ncc(-c2cc(F)c3c(c2)OC(c2cc4c(s2)CCC4)n2c-3cc3cc(-c4cnc([C@@H]5C[C@H]6C[C@H]6N5C(=O)[C@@H](NC(=O)OC)C5C[C@@H](C)O[C@@H](C)C5)[nH]4)ccc32)[nH]1)C(C)C` (single isomer, unassigned) [Compound 553] yielded an IC50 (HCV replicon 2B; [1]) of 0.218 nM, an IC50 (HCV replicon 1A; HCV replicon 1A) of 0.0441 nM and an IC50 (HCV replicon 1AY93H; [2]) of 0.0396 nM. For the same molecule, the IC50 (HCV replicon 1AQ30D; [3]) was 0.708 nM and the IC50 (HCV replicon 1B; HCV replicon 1B) was 0.0482 nM.
Work on `COCc1ccc(C2Oc3cc(-c4cnc([C@@H]5CCCN5C(=O)[C@@H](NC(=O)OC)C(C)C)[nH]4)cc(F)c3-c3cc4cc(-c5c[nH]c([C@@H]6CCCN6C(=O)[C@@H](NC(=O)OC)C(C)C)n5)ccc4n32)s1` (single isomer, unassigned) [Compound 513] yielded an IC50 (HCV replicon 2B; [1]) of 0.409 nM, an IC50 (HCV replicon 1A; HCV replicon 1A) of 0.00393 nM and an IC50 (HCV replicon 1AY93H; [2]) of 0.0385 nM. The IC50 (HCV replicon 1AQ30D; [7]) was 0.986 nM and the IC50 (HCV replicon 1B; [8]) was 0.00425 nM.
Molecule `COC(=O)N[C@H](C(=O)N1CCC[C@H]1c1ncc(-c2cc(F)c3c(c2)OC(c2cc4ccccc4s2)n2c-3cc3cc(-c4cnc([C@@H]5C[C@H]6C[C@H]6N5C(=O)[C@@H](NC(=O)OC)C(C)C)[nH]4)ccc32)[nH]1)C(C)C` (single isomer, unassigned) [Compound 615] has an IC50 (HCV replicon 2B; [1]) of 1.08 nM, an IC50 (HCV replicon 1A; HCV replicon 1A) of 0.0023 nM and an IC50 (HCV replicon 1AY93H; [2]) of 0.045 nM. For the same molecule, the IC50 (HCV replicon 1AQ30D; [7]) was 0.844 nM and the IC50 (HCV replicon 1B; [8]) was 0.0019 nM.

From US20160257697A1, “THIOPHENE-SUBSTITUTED TETRACYCLIC COMPOUNDS AND METHODS OFUSE THEREOF FOR THE TREATMENT OF VIRAL DISEASES” (priority 2013, published 2016)
